Results from ChEMBL document CHEMBL1201862, “PubChem BioAssay data set” (2004).
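Grown in 96-well plates, cells were treated for 48 hours with each compound at five concentrations. Insufficient inhibition: endpoint recorded as highest concentration tested. The concentration for 50% growth inhibition is given as GI50.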 Calls of active or inactive are those of the source. No stated cut-off is given here; in the data, active = GI50 up to about 1.1 µM and inactive = higher.

Columns and labels:
Assay in all cases: NCI anticancer screen, dose series, 48 h
[1] = test system: A549
[2] = test system: ACHN
[3] = test system: EKVX
[4] = test system: HOP-62
[5] = test system: LOX IMVI
[6] = test system: M14
[7] = test system: Malme-3M
[8] = test system: NCI-H460
[9] = test system: OVCAR-4
[10] = test system: OVCAR-5
[11] = test system: SF-268
[12] = test system: SF-295
[13] = test system: SK-MEL-28
[14] = test system: SK-MEL-2
[15] = test system: SW-620
[16] = test system: TK-10
[17] = test system: UACC-62
[18] = test system: HL-60

Measured: GI50

O=C(Nc1ccccc1-c1nn(CO)c(=S)n(CO)c1=O)C(F)(F)F
inactive: [1] > 100 µM | [2] > 100 µM | [3] > 100 µM | [4] > 100 µM | [5] > 100 µM | [6] > 100 µM | [7] > 100 µM | [8] > 100 µM | [9] > 100 µM | [10] > 100 µM | [11] > 100 µM | [12] > 100 µM | [13] > 100 µM | [14] > 100 µM | [15] > 100 µM | [16] > 100 µM | [17] > 100 µM

COc1cc(CC(C(=O)O)C(=O)O)c(OC)cc1CC(C(=O)O)C(=O)O
inactive: [1] > 100 µM | [3] > 100 µM | [18] > 100 µM | [4] > 100 µM | [5] > 100 µM | [6] > 100 µM | [7] > 100 µM | [8] > 100 µM | [9] > 100 µM | [10] > 100 µM | [11] > 100 µM | [12] > 100 µM | [15] > 100 µM | [16] > 100 µM | [17] > 100 µM

O=C1OC(c2ccccc2)=N/C1=C/C=C/c1ccco1
inactive: [1] > 100 µM | [2] > 100 µM | [3] > 100 µM | [6] > 100 µM | [7] > 100 µM | [9] > 100 µM | [10] > 100 µM | [11] > 100 µM | [12] > 100 µM | [13] > 100 µM | [14] > 100 µM | [15] > 100 µM | [16] > 100 µM | [17] > 100 µM

O=C1C(O)=C(CN(CCCl)CCCl)C(=O)c2ccccc21
inactive: [1] 34.3 µM | [2] 35.2 µM | [3] > 100 µM | [18] 31 µM | [4] > 100 µM | [6] 65.6 µM | [7] 53.5 µM | [8] 29.2 µM | [9] > 100 µM | [10] 76.9 µM | [11] 43.1 µM | [12] 70.3 µM | [13] > 100 µM | [14] > 100 µM | [15] 53.2 µM | [16] > 100 µM | [17] 39.6 µM

O=C1c2ccccc2NC1(c1ccccc1)c1c(-c2ccccc2)[nH]c2ccccc12 (centres undefined)
inactive: [1] 3.98 µM | [2] 9.25 µM | [3] 35.2 µM | [18] 5.04 µM | [4] 67.5 µM | [6] 22.1 µM | [8] 17.5 µM | [9] 8.99 µM | [12] 6.34 µM | [13] 37.5 µM | [14] 11.9 µM | [15] 51.9 µM | [17] 45.3 µM

c1ccc2c(c1)C1CCCCCC21N1CCOCC1 (centres undefined)
inactive: [1] > 100 µM | [2] > 100 µM | [18] 44.6 µM | [4] > 100 µM | [5] > 100 µM | [6] 98.2 µM | [8] 69 µM | [9] 91 µM | [10] > 100 µM | [11] > 100 µM | [12] > 100 µM | [13] > 100 µM | [14] > 100 µM | [15] > 100 µM | [16] > 100 µM | [17] > 100 µM

Cn1c(=O)nc2n(-c3cc(C(F)(F)F)cc(C(F)(F)F)c3)c3ccccc3nc-2c1=O
inactive: [1] > 100 µM | [2] 75.3 µM | [3] > 100 µM | [18] > 100 µM | [4] > 100 µM | [5] > 100 µM | [6] > 100 µM | [7] > 100 µM | [8] > 100 µM | [9] 40.3 µM | [10] > 100 µM | [11] > 100 µM | [12] 52.1 µM | [13] > 100 µM | [14] > 100 µM | [15] > 100 µM | [16] > 100 µM
